Results reported in patent US20210161131A1, “cis-p-Menthane-1,8-Di-secondary Amine Compounds as well as Their Preparation Methods and Application in Weed Control” (RESEARCH INSTITUTE OF FORESTRY NEW TECHNOLOGY, CHINESE …, priority 2019, published 2021).

Test system: barnyard grass seeds
Experiment: Petri dish seed germination method: inhibition of root and stem growth of barnyard grass
Assay type: in vivo
Conditions: 96 hours incubation
Protocol: (§1) Step 2: Accurately weigh 1 mmol cis-p-menthane-1,8-di-Schiff base compounds and cis-p-menthane-1,8-di-secondary amine compounds respectively, dissolve each of them with 0.25 mL DMF, and add a drop of Tween 80 in each resulted solution. After being fully dissolved, each solution is transferred to a 100 mL volumetric flask respectively and then diluted to the mark with distilled water to obtain a solution with a concentration of 10 mmol/L as the mother liquor. The two-fold dilution method is used to prepare diluted solutions with a series of concentrations (the concentrations of DMF and Tween 80 in the diluted solutions are the same as those in the mother liquor).
(§2) Barnyard grass seeds are placed in a 28° C. incubator and are soaked in an appropriate amount of distilled water for 12 hours there. After the clean water is filtered out, the seeds are then placed in the 28° C. incubator for 24 hours to germinate. Spread 2 pieces of filter paper in each of several Petri dishes, and place 10 barnyard grass seeds with the same size in each dish. Repeat each treatment for three times The dishes are divided into two groups: test dishes and control dishes. Add into each test dish 10 mL of the sample solution with the corresponding concentration of the target compound, and add into each control dish the same amount of the mixture of water, DMF and Tween 80 as the blank control. Add 10 seeds to each of the dishes (both test dishes and control dishes), place them in an artificial climate incubator, and incubate them for 96 hours under a temperature of 28° C., an illumination of 5000 1×, a photoperiod of day:night=16:8 and a relative humidity of 70-80%. The experimental data is processed and analyzed with DPS software to calculate the inhibition rate (y) of cis-p-menthane-1,8-di-secondary amine compounds on the root growth or stem growth of barnyard grass seeds.
Wherein, y is the inhibition rate of root growth or stem growth (%), x0 is the root length or stem length of the control, and x1 is the root length or stem length of the sample.
as §1, with “Accurately” for “Step 2: Accurately”, “cis-p-menthane-1,8-bis-(4-chlorophenyl)Schiff” for “cis-p-menthane-1,8-di-Schiff”, “base” for “base compounds”, “cis-p-menthane-1,8-bis-(4-chlorobenzyl)amine” for “cis-p-menthane-1,8-di-secondary amine compounds”, “(5 mmol/L, 2.5 mmol/L, 1.25 mmol/L, 0.625 mmol/L, 0.3125 mmol/L and 0.1563 mmol/L; the” for “(the”
as §2, with “placed in a 30° C. incubator” for “placed in the 28° C. incubator”, “in each Petri dish,” for “in each of several Petri dishes,”, “each Petri dish, and place” for “several Petri dishes, and place”, “with the above corresponding concentration” for “with the corresponding concentration”, “with DPS software.” for “with DPS software to calculate the inhibition rate (y) of cis-p-menthane-1,8-di-secondary amine compounds on the root growth or stem growth of barnyard grass seeds.”

| Structure (SMILES) | inhibition rate on the root growth of barnyard grass seeds (0.15625 mmol/L) [%] | inhibition rate on the stem growth of barnyard grass seeds (0.15625 mmol/L) [%] | inhibition rate on the root growth of barnyard grass seeds (0.3125 mmol/L) [%] | inhibition rate on the stem growth of barnyard grass seeds (0.3125 mmol/L) [%] | inhibition rate on the root growth of barnyard grass seeds (0.625 mmol/L) [%] | inhibition rate on the stem growth of barnyard grass seeds (0.625 mmol/L) [%] | inhibition rate on the root growth of barnyard grass seeds (1.25 mmol/L) [%] | inhibition rate on the stem growth of barnyard grass seeds (1.25 mmol/L) [%] | inhibition rate on the root growth of barnyard grass seeds (2.5 mmol/L) [%] | inhibition rate on the stem growth of barnyard grass seeds (2.5 mmol/L) [%] | inhibition rate on the root growth of barnyard grass seeds (5 mmol/L) [%] | inhibition rate on the stem growth of barnyard grass seeds (5 mmol/L) [%] |
| --- | --- | --- | --- | --- | --- | --- | --- | --- | --- | --- | --- | --- |
| CC1(NCc2ccc(Cl)cc2)CCC(C(C)(C)NCc2ccc(Cl)cc2)CC1 (stereo not drawn) [cis-p-menthane-1,8-bis-(4-chlorobenzyl)amine] | 31.4 | 35.7 | 57.1 | 41.6 | 87.3 | 65.8 | 90.8 | 63.4 | 91.6 | 68.0 | 96.7 | 75.1 |
| CC(C)(N=Cc1ccc(Cl)cc1)[C@H]1CC[C@@](C)(N=Cc2ccc(Cl)cc2)CC1 [cis-p-menthane-1,8-bis-(4-chlorophenyl) Schiff base, reference compound] |  |  | −5.0 | 1.4 | 24.3 | 4.6 | 76.7 | 23.9 | 49.9 | 22.8 | 92.4 | 20.9 |
| CN(C)c1ccc(C=NC(C)(C)[C@H]2CC[C@@](C)(N=Cc3ccc(N(C)C)cc3)CC2)cc1 [cis-p-menthane-1,8-bis-(4-dimethylaminobenzyl)Schiff base, reference compound] |  |  | 9.7 | −12.2 | 45.4 | 9.5 | 49.8 | 6.9 | 59.3 | 1.9 | 67.1 | 13.2 |
| CN(C)c1ccc(CNC2(C)CCC(C(C)(C)NCc3ccc(N(C)C)cc3)CC2)cc1 (stereo not drawn) [cis-p-menthane-1,8-bis-(4-dimethylaminobenzyl)amine] | 14.4 | 19.1 | 31.0 | 19.6 | 21.0 | 24.9 | 48.1 | 22.3 | 70.3 | 34.3 | 89.3 | 56.6 |
| CC1(N=Cc2ccc(F)cc2)CCC(C(C)(C)N=Cc2ccc(F)cc2)CC1 (stereo not drawn) [cis-p-menthane-1,8-bis-(4-fluorobenzyl)Schiff base, reference compound] |  |  | 15.7 | −13.7 | 72.8 | 2.7 | 85.7 | 23.9 | 82.9 | 20.1 | 79.7 | 32.3 |
| CC1(NCc2ccc(F)cc2)CCC(C(C)(C)NCc2ccc(F)cc2)CC1 (stereo not drawn) [cis-p-menthane-1,8-bis-(4-fluorobenzyl)amine] | 38.2 | 7.2 | 48.3 | 10.5 | 78.6 | 58.3 | 78.6 | 75.1 | 98.6 | 85.9 | 100.0 | 100.0 |
| COc1ccc(C=NC2(C)CCC(C(C)(C)N=Cc3ccc(OC)cc3)CC2)cc1 (stereo not drawn) [cis-p-menthane-1,8-bis-(4-methoxybenzyl)Schiff base, reference compound] |  |  | 70.7 | 15.4 | 66.7 | 6.9 | 55.3 | 4 | 28.1 | 8.0 | 7.6 | 2.1 |
| COc1ccc(CNC2(C)CCC(C(C)(C)NCc3ccc(OC)cc3)CC2)cc1 (stereo not drawn) [cis-p-menthane-1,8-bis-(4-methoxybenzyl)amine] | 37.8 | 9.9 | 42.2 | 27.9 | 88.7 | 72.5 | 95.1 | 70.6 | 96.5 | 84.4 | 100.0 | 84.3 |
| Cc1ccc(CNC(C)(C)[C@H]2CC[C@@](C)(NCc3ccc(C)cc3)CC2)cc1 [cis-p-menthane-1,8-bis-(4-methylbenzyl)amine] | 42.5 | 42.1 | 86.6 | 64.6 | 89.6 | 65.9 | 91.9 | 74.7 | 95.2 | 87.1 | 100.0 | 93.3 |
| CSc1ccc(CNC2(C)CCC(C(C)(C)NCc3ccc(SC)cc3)CC2)cc1 (stereo not drawn) [cis-p-menthane-1,8-bis-(4-methylthiobenzyl)amine] | 32.0 | 22.8 | 58.1 | 66.0 | 77.2 | 66.2 | 90.8 | 83.4 | 96.0 | 77.5 | 98.5 | 85.1 |
